Data published in the NIST ThermoML archive (doi:10.1021/acs.jced.5b00077).
Numbers after ± are expanded uncertainties.

Key:
[1] = for surface tension liquid-gas: Ring tensiometer; for electrical conductivity: 101.33 kPa, Liquid, Alternating current cell with electrodes
[2] = refractive index (Na D-line) (dimensionless); conditions: 101.33 kPa, Liquid, Standard Abbe refractometry

| SMILES | surface tension liquid-gas ([1]; 293.15 K) [mN/m] | electrical conductivity ([1]; 293.15 K) [S/m] | surface tension liquid-gas ([1]; 298.15 K) [mN/m] | electrical conductivity ([1]; 298.15 K) [S/m] | surface tension liquid-gas ([1]; 303.15 K) [mN/m] | electrical conductivity ([1]; 303.15 K) [S/m] | surface tension liquid-gas ([1]; 308.15 K) [mN/m] | electrical conductivity ([1]; 308.15 K) [S/m] | surface tension liquid-gas ([1]; 313.15 K) [mN/m] | electrical conductivity ([1]; 313.15 K) [S/m] | surface tension liquid-gas ([1]; 318.15 K) [mN/m] | electrical conductivity ([1]; 318.15 K) [S/m] | surface tension liquid-gas ([1]; 323.15 K) [mN/m] | electrical conductivity ([1]; 323.15 K) [S/m] | surface tension liquid-gas ([1]; 328.15 K) [mN/m] | electrical conductivity ([1]; 328.15 K) [S/m] | surface tension liquid-gas ([1]; 333.15 K) [mN/m] | electrical conductivity ([1]; 333.15 K) [S/m] | refractive index ([2]; 293.15 K) | refractive index ([2]; 298.15 K) | also measured |
| --- | --- | --- | --- | --- | --- | --- | --- | --- | --- | --- | --- | --- | --- | --- | --- | --- | --- | --- | --- | --- | --- |
| CC(=O)[O-].[NH3+]CCCO [3-hydroxypropylammonium acetate] | 48 ± 1.4 | 0.01 ± 0.01 | 47.5 ± 1.3 | 0.01 ± 0.01 | 47 ± 1.3 | 0.01 ± 0.01 | 46.5 ± 1.3 | 0.02 ± 0.01 | 46 ± 1.3 | 0.02 ± 0.01 | 45.5 ± 1.3 | 0.03 ± 0.01 | 45 ± 1.3 | 0.04 ± 0.01 | 44.5 ± 1.3 | 0.05 ± 0.01 | 44 ± 1.2 | 0.06 ± 0.01 | 1.4663 ± 0.0012 | 1.4652 ± 0.0012 | refractive index ([2]; 303.15 K): 1.464 ± 0.0012; refractive index ([2]; 308.15 K): 1.4628 ± 0.0012; refractive index ([2]; 313.15 K): 1.4616 ± 0.0012; refractive index ([2]; 318.15 K): 1.4605 ± 0.0012; refractive index ([2]; 323.15 K): 1.4593 ± 0.0012; refractive index ([2]; 328.15 K): 1.4581 ± 0.0012; refractive index ([2]; 333.15 K): 1.457 ± 0.0012 |
| O=C[O-].[NH3+]CCCO [3-hydroxypropylammonium formate] | 56.9 ± 1.6 | 0.11 ± 0.01 | 56.4 ± 1.6 | 0.14 ± 0.01 | 55.9 ± 1.6 | 0.17 ± 0.01 | 55.4 ± 1.6 | 0.21 ± 0.01 | 54.9 ± 1.5 | 0.26 ± 0.01 | 54.4 ± 1.5 | 0.3 ± 0.01 | 54 ± 1.5 | 0.36 ± 0.01 | 53.5 ± 1.5 | 0.42 ± 0.01 | 53 ± 1.5 | 0.49 ± 0.01 | 1.4678 ± 0.0012 | 1.4667 ± 0.0012 | refractive index ([2]; 303.15 K): 1.4655 ± 0.0012; refractive index ([2]; 308.15 K): 1.4644 ± 0.0012; refractive index ([2]; 313.15 K): 1.4632 ± 0.0012; refractive index ([2]; 318.15 K): 1.4621 ± 0.0012; refractive index ([2]; 323.15 K): 1.461 ± 0.0012; refractive index ([2]; 328.15 K): 1.4598 ± 0.0012; refractive index ([2]; 333.15 K): 1.4586 ± 0.0012 |
| O=C([O-])C(F)(F)F.[NH3+]CCCO [3-hydroxypropylammonium trifluoroacetate] | 38.2 ± 1.1 | 0.03 ± 0.01 | 37.8 ± 1.1 | 0.04 ± 0.01 | 37.4 ± 1.1 | 0.06 ± 0.01 | 37 ± 1.1 | 0.09 ± 0.01 | 36.5 ± 1 | 0.12 ± 0.01 | 36.1 ± 1 | 0.16 ± 0.01 | 35.7 ± 1 | 0.2 ± 0.01 | 35.3 ± 1 | 0.25 ± 0.01 | 34.9 ± 1 | 0.31 ± 0.01 | 1.4113 ± 0.0012 | 1.4101 ± 0.0012 | refractive index ([2]; 303.15 K): 1.409 ± 0.0012; refractive index ([2]; 308.15 K): 1.4078 ± 0.0012; refractive index ([2]; 313.15 K): 1.4067 ± 0.0012; refractive index ([2]; 318.15 K): 1.4055 ± 0.0012; refractive index ([2]; 323.15 K): 1.4044 ± 0.0012; refractive index ([2]; 328.15 K): 1.4032 ± 0.0012; refractive index ([2]; 333.15 K): 1.402 ± 0.0012 |
| CC(=O)[O-].CCC[NH3+] [propylammonium acetate] | 33.5 ± 1 | 0.04 ± 0.01 | 33.1 ± 1 | 0.06 ± 0.01 | 32.7 ± 0.9 | 0.08 ± 0.01 | 32.2 ± 0.9 | 0.1 ± 0.01 | 31.8 ± 0.9 | 0.14 ± 0.01 | 31.4 ± 0.9 | 0.17 ± 0.01 | 31 ± 0.9 | 0.22 ± 0.01 | 30.6 ± 0.9 | 0.27 ± 0.01 | 30.2 ± 0.9 | 0.33 ± 0.01 | 1.4383 ± 0.0012 | 1.4369 ± 0.0012 | refractive index ([2]; 303.15 K): 1.4356 ± 0.0012; refractive index ([2]; 308.15 K): 1.4341 ± 0.0012; refractive index ([2]; 313.15 K): 1.4328 ± 0.0012; refractive index ([2]; 318.15 K): 1.4313 ± 0.0012; refractive index ([2]; 323.15 K): 1.4301 ± 0.0012; refractive index ([2]; 328.15 K): 1.4287 ± 0.0012; refractive index ([2]; 333.15 K): 1.4273 ± 0.0012 |
| CCC[NH3+].O=C[O-] [propylammonium formate] | 37.8 ± 1.1 | 0.31 ± 0.01 | 37.4 ± 1.1 | 0.36 ± 0.01 | 37 ± 1.1 | 0.44 ± 0.01 | 36.6 ± 1 | 0.51 ± 0.01 | 36.2 ± 1 | 0.59 ± 0.01 | 35.8 ± 1 | 0.68 ± 0.01 | 35.4 ± 1 | 0.78 ± 0.01 | 35 ± 1 | 0.87 ± 0.01 | 34.6 ± 1 | 1 ± 0.01 | 1.44 ± 0.0012 | 1.4386 ± 0.0012 | refractive index ([2]; 303.15 K): 1.4372 ± 0.0012; refractive index ([2]; 308.15 K): 1.4356 ± 0.0012; refractive index ([2]; 313.15 K): 1.4341 ± 0.0012; refractive index ([2]; 318.15 K): 1.4326 ± 0.0012; refractive index ([2]; 323.15 K): 1.431 ± 0.0012; refractive index ([2]; 328.15 K): 1.4295 ± 0.0012; refractive index ([2]; 333.15 K): 1.428 ± 0.0012 |
